The results in this text go back to ChEMBL document CHEMBL1139604 (Bioorg Med Chem Lett, 2005).

Assay [1] can be described thus: Inhibition of bovine farnesyl transferase. More on the design: species or system Bos taurus.
The target of assay [2] is T1, Protein farnesyltransferase (Mus musculus) (UniProt Q61239+Q8K2I1). Kind of assay: Percent inhibition of Ras processing in H-ras transformed NIH3T3 cells at 100 nM. The format is functional, cell-based.
The target in assay [3] is T2, Geranylgeranyl transferase type I (Bos taurus, UniProt P29702+Q5EAD5). Kind of assay: Inhibition of bovine geranylgeranyl transferase type I. The format is protein-complex assay.
Assay [4] deals with T3, Protein farnesyltransferase (Mus musculus, UniProt Q61239+Q8K2I1). The assay is described as follows: Inhibition of Ras processing in H-ras transformed NIH3T3 cells in presence of Lonafarnib. The format is functional, cell-based.
Assay [5] in a line: Inhibition of bovine farnesyl transferase in presence of Lonafarnib. On the set-up: species or system Bos taurus.
The target of assay [6] is T2, Geranylgeranyl transferase type I. The assay is described as follows: Inhibition of bovine geranylgeranyl transferase type I in presence of Lonafarnib. The format is protein-complex assay.
Assay [7] has as its target T3, Protein farnesyltransferase. The assay is described as follows: Inhibition of Ras processing in H-ras transformed NIH3T3 cells. The format is functional, cell-based.
The target in assay [8] is T1, Protein farnesyltransferase (Mus musculus). The assay is described as follows: Percent inhibition of Ras processing in H-ras transformed NIH3T3 cells at 1000 nM. The format is functional, cell-based.

One may read the IC50 as the concentration at which inhibition is half-maximal. Usually inhibition stands for the change of the read-out against control, counted positive when it falls. Read a low inhibition as little suppression. Usually EC50 stands for the concentration that produces a half-maximal response.

For the molecule `Cn1cncc1C(O)(c1ccc(Cl)cc1)c1ccc2c(c1)n(-c1ccc3c(c1)OCO3)c(=O)n2C` (stereo not drawn), the IC50 in assay [1] turned out to be 150 nM.
With `Cn1cncc1C(O)(c1ccc(C#N)cc1)c1ccc2c(c1)n(-c1ccc3c(c1)OCO3)c(=O)n2C` (stereo not drawn), the IC50 is 8 nM in assay [1] and above 10000 nM in assay [3]. Besides, the inhibition in assay [2] was 0%.
Consider `Cn1cncc1C(O)(c1ccccc1)c1ccc2ccn(-c3cccc4ccccc34)c2c1` (stereo not drawn), for which the IC50 in assay [1] was 200 nM.
On the same count and under the same terms, the figure for `Cn1cncc1C(O)(c1ccc(Cl)cc1)c1ccc2c(c1)n(C)c(=O)n2-c1cccc(Cl)c1` (stereo not drawn) is 1100 nM.
`Cn1cncc1C(O)(c1ccc(Cl)cc1)c1ccc2c(c1)n(-c1ccc3ccccc3c1)c(=O)n2C` (stereo not drawn): the 50% inhibitory concentration (IC50) in assay [1] is 21 nM; in assay [3], 2900 nM. In assay [2], this molecule returned an inhibition of 0%.
On to `COc1cccc(-n2c(=O)n(C)c3ccc(C(O)(c4ccc(Cl)cc4)c4cncn4C)cc32)c1` (stereo not drawn), for which the IC50 was 6.7 nM in assay [1] and above 10000 nM in assay [3]. This molecule also gave an inhibition in assay [2] of 24%.
On the same counts, the results for `Cn1cncc1C(O)(c1ccc(C#N)cc1)c1ccc2c(c1)n(Cc1cccc(Cl)c1)c(=O)n2C` (stereo not drawn) are 5.2 nM, 5600 nM and 51%.
In the same order, the values of `CCOc1cccc(-n2c(=O)n(C)c3ccc(C(O)(c4ccc(C#N)cc4)c4cncn4C)cc32)c1` (stereo not drawn) are 0.5 nM, above 10000 nM and 47%.
In the case of `Cn1cncc1C(O)(c1ccc(Cl)cc1)c1ccc2c(c1)n(Cc1cccc(Cl)c1)c(=O)n2C` (stereo not drawn), the IC50 in assay [1] was found to be 150 nM.
With `Cn1cncc1[C@@](N)(c1ccc(Cl)cc1)c1ccc2c(c1)c(-c1cccc(Cl)c1)cc(=O)n2C` [TIPIFARNIB], the EC50 in assay [4] worked out at 100 nM. Also, the 50% inhibitory concentration (IC50) was 8.3 nM in assay [5] and above 10000 nM in assay [6].
Take `Cn1cncc1C(O)(c1ccc(I)cc1)c1ccc2c(c1)n(-c1cccc(Cl)c1)c(=O)n2C` (stereo not drawn): the concentration for half-maximal inhibition (IC50) in assay [1] came to 24 nM; in assay [3], 1200 nM. In addition, the inhibition in assay [2] was 2%.
Turning to `Cn1cncc1C(O)(c1ccc(I)cc1)c1ccc2c(c1)n(Cc1cccc(Cl)c1)c(=O)n2C` (stereo not drawn), the half-inhibitory concentration (IC50) in assay [1] came to 71 nM.
With `CCOc1cccc(-n2c(=O)n(C)c3ccc(C(O)(c4ccc(Cl)cc4)c4cncn4C)cc32)c1` (stereo not drawn), in assay [7], a half-maximal response (EC50) required 22 nM. The half-inhibitory concentration (IC50) came to 6.6 nM in assay [1] and 7500 nM in assay [3].
Consider `COc1cccc(-n2c(=O)n(C)c3ccc(C(O)(c4ccc(C#N)cc4)c4cncn4C)cc32)c1` (stereo not drawn), for which the IC50 in assay [1] was 5.1 nM; in assay [3] it was above 10000 nM.
In turn, `Cn1cncc1C(O)(c1ccc(C#N)cc1)c1ccc2c(c1)n(-c1cccc(Cl)c1)c(=O)n2C` (stereo not drawn) gave an EC50 in assay [7] of 18.1 nM. Further, the IC50 in assay [1] came to 1.4 nM; in assay [3] it was 1800 nM.
Turning to `Cn1cncc1C(O)(c1ccc(Cl)cc1)c1ccc2c(c1)n(-c1cccc(Cl)c1)c(=O)n2C` (stereo not drawn), the IC50 in assay [1] was found to be 16 nM. Besides, the inhibition in assay [2] worked out at 26%.
With `Cn1cncc1C(O)(c1ccccc1)c1ccc2ccn(-c3cccc(Cl)c3)c2c1` (stereo not drawn), the inhibition in assay [8] was found to be 13%. The IC50 in assay [1] came to 36 nM.
